Measurements as given in article PMC7125129, “Anti-HIV agent azidothymidine decreases Tet(X)-mediated bacterial resistance to tigecycline in Escherichia coli” (Communications Biology, 2020).
Read-outs that look alike come from different tables or passages of the source.

Tests used:
E. brevis S1-3 (tet(X3)) = tested on: T1, E. brevis S1-3 (tet(X3)); assay: organism not typed; design: Broth microdilution MIC, bacterial growth inhibition in Mueller-Hinton broth; settings: read-out: MIC (μg/mL)
T1 construct: S1-3 (tet(X3))
Description: (§1) Bacterial and chemical reagents Sequential culturing of E. coli ATCC 25922 in the presence of subinhibitory levels of tigecycline, azidothymidine, or the combination. After 24 h co-incubation, any cultures that grew at higher than the MIC levels were passaged on drug free MHA plates and the MIC was then determined by broth microdilution. This serial passaging was repeated daily for 30 days. To further evaluate the synergistic activity between tigecycline and three candidates, standard checkerboard microdilution in E. coli B3-1 was performed. […] Thus, we next focused our insights on the potentiation potency of azidothymidine with tigecycline. We first evaluated the stability of the azidothymidine-tigecycline combination in the presence of salt ions and serum, which are two critical factors that affect the in vivo efficacy of drugs[20],[21]. […] However, addition of divalent cations such as Ca^2+ and Mg^2+ (10 mM) abolished its potentiation activity, but EDTA could augment the synergistic effect (Supplementary Fig. 2). Considering that divalent cations and EDTA are associated with membrane permeability, we speculated that entrance of two drugs into bacteria contribute to their activity. Next, we assessed the potency of this combination in a panel of clinical isolates from animals and environmental samples (Supplementary Tables 2 and 3). […]

[1] = tested on: T2, E. fergusonnii 1C4-6 (tet(X4)); assay: organism not typed; design: Broth microdilution MIC, bacterial growth inhibition in Mueller-Hinton broth; settings: read-out: MIC (μg/mL)
T2 construct: 1C4-6 (tet(X4))
Description: as §1

Tet(X4) = biological target: T3, Tet(X4) (Escherichia coli, UniProt A0A3T0V9Y5); assay: purified enzyme inhibition assay, tigecycline absorbance at […] nm; type: biochemical
T3 construct: gene mtr-1

[2] = tested on: T4, Enterococcus faecalis VRE A4; assay: microbe, parasite or virus in culture; design: Broth microdilution MIC, bacterial growth inhibition in Mueller-Hinton broth; settings: read-out: MIC (μg/mL)
T4 construct: VRE A4
Description: (§2) Bacterial and chemical reagents Sequential culturing of E. coli ATCC 25922 in the presence of subinhibitory levels of tigecycline, azidothymidine, or the combination. After 24 h co-incubation, any cultures that grew at higher than the MIC levels were passaged on drug free MHA plates and the MIC was then determined by broth microdilution. This serial passaging was repeated daily for 30 days. To further evaluate the synergistic activity between tigecycline and three candidates, standard checkerboard microdilution in E. coli B3-1 was performed. […] Thus, we next focused our insights on the potentiation potency of azidothymidine with tigecycline. We first evaluated the stability of the azidothymidine-tigecycline combination in the presence of salt ions and serum, which are two critical factors that affect the in vivo efficacy of drugs[20],[21]. […] However, addition of divalent cations such as Ca^2+ and Mg^2+ (10 mM) abolished its potentiation activity, but EDTA could augment the synergistic effect (Supplementary Fig. 2). Considering that divalent cations and EDTA are associated with membrane permeability, we speculated that entrance of two drugs into bacteria contribute to their activity. Next, we assessed the potency of this combination in a panel of clinical isolates from animals and environmental samples (Supplementary Tables 2 and 3). […] To investigate whether this potentiation is also applicable in Tet(X)-negative bacteria, standard ATCC sensitive bacteria and other E. coli isolates with MIC values of ≤1 μg mL^−1 for tigecycline were tested.

[3] = tested on: T5, Staphylococcus aureus MRSA 1518; assay: microbe, parasite or virus in culture; design: Broth microdilution MIC, bacterial growth inhibition in Mueller-Hinton broth; settings: Staphylococcus aureus, MRSA, read-out: MIC (μg/mL)
T5 construct: 1518
Description: as §2

[4] = tested on: T6, Shigella 1F25-27 (tet(X4)); assay: microbe, parasite or virus in culture; design: Broth microdilution MIC, bacterial growth inhibition in Mueller-Hinton broth; settings: read-out: MIC (μg/mL)
T6 construct: 1F25-27 (tet(X4))
Description: as §2

E. coli B3-1 (tet(X4)) = tested on: T7, E. coli B3-1 (tet(X4)); assay: microbe, parasite or virus in culture; design: Broth microdilution MIC, bacterial growth inhibition in Mueller-Hinton broth; settings: Escherichia coli
T7 construct: B3-1
Description: as §2

[5] = tested on: T8, S. aureus 215 (LZD^R + cfr); assay: microbe, parasite or virus in culture; design: Broth microdilution MIC, bacterial growth inhibition in Mueller-Hinton broth; settings: Staphylococcus aureus, read-out: MIC (μg/mL)
T8 construct: 215
Description: as §2

[6] = tested on: T9, E. coli B2 (NDM-5 + MCR-1); assay: microbe, parasite or virus in culture; design: Broth microdilution MIC, bacterial growth inhibition in Mueller-Hinton broth; settings: Escherichia coli, read-out: MIC (μg/mL)
T9 construct: B2
Description: as §2

[7] = tested on: T10, Salmonella enterica ATCC 13076; assay: microbe, parasite or virus in culture; design: Broth microdilution MIC, bacterial growth inhibition in Mueller-Hinton broth; settings: ATCC13076, read-out: MIC (μg/mL)
T10 construct: ATCC 13076
Description: as §2

E. coli W7-1 (tet(X4)) = tested on: T11, E. coli W7-1 (tet(X4)); assay: microbe, parasite or virus in culture; design: Broth microdilution MIC, bacterial growth inhibition in Mueller-Hinton broth; settings: Escherichia coli, read-out: MIC (μg/mL)
T11 construct: W7-1
Description: as §2

[8] = tested on: T12, Proteus penneri 2F1-3 (tet(X4)); assay: microbe, parasite or virus in culture; design: Broth microdilution MIC, bacterial growth inhibition in Mueller-Hinton broth; settings: read-out: MIC (μg/mL)
T12 construct: 2F1-3 (tet(X4))
Description: as §2

E. coli B8-1 (tet(X4)) = tested on: T13, E. coli B8-1 (tet(X4)); assay: microbe, parasite or virus in culture; design: Broth microdilution MIC, bacterial growth inhibition in Mueller-Hinton broth; settings: Escherichia coli, read-out: MIC (μg/mL)
T13 construct: B8-1
Description: as §2

[9] = tested on: T14, Staphylococcus aureus MRSA T144; assay: microbe, parasite or virus in culture; design: Broth microdilution MIC, bacterial growth inhibition in Mueller-Hinton broth; settings: Staphylococcus aureus, MRSA, read-out: MIC (μg/mL)
T14 construct: T144
Description: as §2

E. coli P3-1 (tet(X4)) = tested on: T15, E. coli P3-1 (tet(X4)); assay: microbe, parasite or virus in culture; design: Broth microdilution MIC, bacterial growth inhibition in Mueller-Hinton broth; settings: Escherichia coli, read-out: MIC (μg/mL)
T15 construct: P3-1
Description: as §2

[10] = tested on: T16, Escherichia coli ATCC 25922; assay: microbe, parasite or virus in culture; design: Broth microdilution MIC, bacterial growth inhibition in Mueller-Hinton broth; settings: Escherichia coli, ATCC25922, read-out: MIC (μg/mL)
T16 construct: ATCC 25922
Description: as §2

E. coli G6 (NDM-5) = tested on: T17, E. coli G6 (NDM-5); assay: microbe, parasite or virus in culture; design: Broth microdilution MIC, bacterial growth inhibition in Mueller-Hinton broth; settings: Escherichia coli, read-out: MIC (μg/mL)
T17 construct: G6
Description: as §2

E. coli P10-1 (tet(X4)) = tested on: T18, E. coli P10-1 (tet(X4)); assay: microbe, parasite or virus in culture; design: Broth microdilution MIC, bacterial growth inhibition in Mueller-Hinton broth; settings: Escherichia coli, read-out: MIC (μg/mL)
T18 construct: P10-1
Description: as §2

[11] = tested on: T19, Staphylococcus aureus ATCC 29213; assay: microbe, parasite or virus in culture; design: Broth microdilution MIC, bacterial growth inhibition in Mueller-Hinton broth; settings: Staphylococcus aureus, ATCC29213, read-out: MIC (μg/mL)
T19 construct: ATCC 29213
Description: as §2

E. coli C3 (NDM-1) = tested on: T20, E. coli C3 (NDM-1); assay: microbe, parasite or virus in culture; design: Broth microdilution MIC, bacterial growth inhibition in Mueller-Hinton broth; settings: Escherichia coli, read-out: MIC (μg/mL)
T20 construct: C3
Description: as §2

E. coli B9-1 (tet(X4)) = tested on: T21, E. coli B9-1 (tet(X4)); assay: microbe, parasite or virus in culture; design: Broth microdilution MIC, bacterial growth inhibition in Mueller-Hinton broth; settings: Escherichia coli, read-out: MIC (μg/mL)
T21 construct: B9-1
Description: as §2

`Cc1cn([C@H]2C[C@H](N=[N+]=[N-])[C@@H](CO)O2)c(=O)[nH]c1=O` [AZI, azidothymidine] was tested, and the MIC (E. brevis S1-3 (tet(X3))) was over 32 µg/mL, the MIC [1] was 8 µg/mL and the IC50 (Tet(X4)) was 106 nM. For the same molecule, the MIC [2] was over 16 µg/mL, the MIC [3] was over 16 µg/mL and the MIC [4] was 2 µg/mL. For the same molecule, the MIC (E. coli B3-1 (tet(X4)); read-out: MIC (μg/mL)) was 1 µg/mL, the MIC [5] was over 16 µg/mL and the MIC [6] was over 16 µg/mL. The MIC [7] was 0.25 µg/mL, the MIC (E. coli W7-1 (tet(X4))) was 2 µg/mL and the MIC [8] was 8 µg/mL. The MIC (E. coli B8-1 (tet(X4))) was 0.5 µg/mL, the MIC [9] was over 16 µg/mL and the MIC (E. coli P3-1 (tet(X4))) was 0.5 µg/mL. The MIC [10] was 2 µg/mL, the MIC (E. coli G6 (NDM-5)) was 4 µg/mL and the MIC (E. coli P10-1 (tet(X4))) was 0.25 µg/mL. For the same molecule, the MIC [11] was over 16 µg/mL, the MIC (E. coli C3 (NDM-1)) was over 16 µg/mL and the MIC (E. coli B9-1 (tet(X4))) was 1 µg/mL.
`CN(C)c1cc(NC(=O)CNC(C)(C)C)c(O)c2c1C[C@H]1C[C@H]3[C@H](N(C)C)C(O)=C(C(N)=O)C(=O)[C@@]3(O)C(O)=C1C2=O` [Tigecycline] was tested, and the MIC (E. coli B3-1 (tet(X4)); read-out: MHB (MIC, μg/mL)) was 32 µg/mL.
